Source: US7550456B2, “Substituted aryl cycloalkanoyl derivatives and methods of their use” (Wyeth, priority 2003, dated 2009)
pEC50: −log10 of the molar value. Where a name gives a salt, the structure may show the parent alone.

These compounds were tested against T1, human hNET (Homo sapiens, UniProt P23975) (assay: Norepinephrine (NE) uptake assay in MDCK-Net6 cells). Settings: 1 μM test compound, [3H]NE uptake.
T1 construct: expressed in transfected cells; host or cells: MDCK-Net6 (MDCK cells, stably transfected)
T1 sequence (P23975 whole entry): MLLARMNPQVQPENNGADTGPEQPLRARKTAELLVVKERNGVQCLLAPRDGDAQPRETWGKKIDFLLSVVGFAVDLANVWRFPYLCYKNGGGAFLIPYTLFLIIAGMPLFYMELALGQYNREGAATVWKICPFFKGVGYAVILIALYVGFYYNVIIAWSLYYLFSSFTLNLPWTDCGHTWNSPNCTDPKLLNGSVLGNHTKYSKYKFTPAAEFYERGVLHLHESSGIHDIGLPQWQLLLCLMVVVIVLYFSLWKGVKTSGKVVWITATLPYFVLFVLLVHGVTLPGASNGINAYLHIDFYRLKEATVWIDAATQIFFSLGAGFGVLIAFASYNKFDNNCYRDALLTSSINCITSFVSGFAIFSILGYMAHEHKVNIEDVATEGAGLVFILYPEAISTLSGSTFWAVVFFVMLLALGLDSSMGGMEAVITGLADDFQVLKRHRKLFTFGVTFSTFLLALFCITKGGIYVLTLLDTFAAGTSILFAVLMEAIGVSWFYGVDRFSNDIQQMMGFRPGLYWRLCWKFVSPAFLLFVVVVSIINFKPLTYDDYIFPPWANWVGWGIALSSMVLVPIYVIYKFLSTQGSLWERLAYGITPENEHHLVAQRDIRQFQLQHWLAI
Assay type: cell-based
Protocol: Cells were plated at 300,000/T75 flask and cells were split twice weekly. […] Cells were plated at 250,000 cells/T75 flask and split twice weekly.
Norepinephrine (NE) Uptake Assay
On day 1, cells were plated at 3,000 cells/well in growth medium and maintained in a cell incubator (37° C., 5% CO2). On day 2, growth medium was replaced with 200 μl of assay buffer (25 mM HEPES; 120 mM NaCl; 5 mM KCl; 2.5 mM CaCl2; 1.2 mM MgSO4; 2 mg/ml glucose (pH 7.4, 37° C.)) containing 0.2 mg/ml ascorbic acid and 10 μM pargyline. Plates containing cells with 200 μl of assay buffer were equilibrated for 10 minutes at 37° C. prior to addition of compounds. A stock solution of desipramine was prepared in DMSO (10 mM) and delivered to triplicate wells containing cells for a final test concentration of 1 μM. Data from these wells were used to define non-specific NE uptake (minimum NE uptake). Test compounds were prepared in DMSO (10 mM) and diluted in assay buffer according to test range (1 to 10,000 nM). Twenty-five microliters of assay buffer (maximum NE uptake) or test compound were added directly to triplicate wells containing cells in 200 μl of assay buffer. The cells in assay buffer with test compounds were incubated for 20 minutes at 37° C. […] The reaction was terminated by decanting the supernatant from the plate. The plates containing cells were washed twice with 200 μl assay buffer (37° C.) to remove free radioligand. The plates were then inverted, left to dry for 2 minutes, then reinverted and air-dried for an additional 10 minutes. The cells were lysed in 25 μl of 0.25 N NaOH solution (4° C.), placed on a shake table and vigorously shaken for 5 minutes. After cell lysis, 75 μl of scintillation cocktail was added to each well and the plates were sealed with film tape. The plates were returned to the shake table and vigorously shaken for a minimum of 10 minutes to ensure adequate partitioning of organic and aqueous solutions. The plates were counted in a Wallac Microbeta counter (PerkinElmer) to collect the raw cpm data.
For each experiment, a data stream of cpm values collected from the Wallac Microbeta counter was downloaded to a Microsoft Excel statistical application program. Calculations of EC50 values were made using the transformed-both-sides logistic dose response program written by Wyeth Biometrics Department.

% Inhibition @ 1 μM (hNET) [%] | Compound
48 | 1-[1-[4-methoxy-3-(trifluoromethoxy)phenyl]-2-(4-methylpiperazin-1-yl)ethyl]cyclohexanoldihydrochloride [Example 403]

Same assay, conditions: 1 μM test compound, [3H]NE uptake, dihydrochloride, 1 µM

Compound | % Inhibition @ 1 μM (hNET) [%]
OC1(C(CN2CCNCC2)c2cccc(OC(F)(F)F)c2)CCCCC1 (stereo in doubt) [Example 244, 1-{(1R)-2-piperazin-1-yl-1-[3-(trifluoromethoxy)phenyl]ethyl}cyclohexanol dihydrochloride] | 15.6

Same assay, conditions: 1 μM test compound, [3H]NE uptake, read-out: % Inhibition @ 1 μM (hNET)

Compound | inhibition at 1 µM [%]
CC(C)(O)CN1CCN(CC(c2cccc(OC(F)(F)F)c2)C2(O)CCCCC2)CC1 (single isomer, unassigned) [Example 372, 1-{2-[4-(2-hydroxy-2-methylpropyl)piperazin-1-yl]-1-[3-(trifluoromethoxy)phenyl]ethyl}cyclohexanol dihydrochloride] | 37
OC1(C(CN2CCNCC2)c2ccc(OC(F)(F)F)cc2)CCCCC1 (stereo not shown) [Example 28, 1-{2-piperazin-1-yl-1-[4-(trifluoromethoxy)phenyl]ethyl}cyclohexanol dihydrochloride] | 80
OC1(C(CN2CCNCC2)c2ccc(OCc3ccccc3)cc2)CCC1 (stereo not shown) [Example 70, 1-{1-[4-(benzyloxy)phenyl]-2-piperazin-1-ylethyl}cyclobutanol dihydrochloride] | 8
CN1CCN(CC(c2ccc(OCc3ccccc3)cc2)C2(O)CCC2)CC1 (stereo not shown) [Example 71, 1-[1-[4-(benzyloxy)phenyl]-2-(4-methylpiperazin-1-yl)ethyl]cyclobutanol dihydrochloride] | 25
CN1CCN(CC(c2cccc(OC(F)(F)F)c2)C2(O)CCC2)CC1 (stereo not shown) [Example 92, 1-{2-(4-methylpiperazin-1-yl)-1-[3-(trifluoromethoxy)phenyl]ethyl}cyclobutanol dihydrochloride] | 13
OC1(C(CN2CCNCC2)c2cccc(OCc3ccccc3)c2)CCCCC1 (stereo not shown) [Example 104, 1-{1-[3-(benzyloxy)phenyl]-2-piperazin-1-ylethyl}cyclohexanol dihydrochloride] | 3
CN1CCN(CC(c2cccc(OCc3ccccc3)c2)C2(O)CCCCC2)CC1 (stereo not shown) [Example 108, 1-[1-[3-(benzyloxy)phenyl]-2-(4-methylpiperazin-1-yl)ethyl]cyclohexanol dihydrochloride] | 0
OC1(C(CN2CCNCC2)c2cccc(OCc3ccccc3)c2)CCC1 (stereo not shown) [Example 111, 1-{1-[3-(benzyloxy)phenyl]-2-piperazin-1-ylethyl}cyclobutanol dihydrochloride] | -3
OC1(C(CN2CCNCC2)c2cccc(-c3ccccc3)c2)CCCCC1 (stereo not shown) [Example 136, 1-[1-(1,1′-biphenyl-3-yl)-2-piperazin-1-ylethyl]cyclohexanol dihydrochloride] | 62
OC1(C(CN2CCNCC2)c2cccc(-c3ccc(Cl)cc3)c2)CCCCC1 (stereo not shown) [Example 137, 1-[1-(4′-chloro-1,1′-biphenyl-3-yl)-2-piperazin-1-ylethyl]cyclohexanol dihydrochloride] | 41
COc1cccc(-c2cccc(C(CN3CCNCC3)C3(O)CCCCC3)c2)c1 (stereo not shown) [Example 138, 1-[1-(3′-methoxy-1,1′-biphenyl-3-yl)-2-piperazin-1-ylethyl]cyclohexanol dihydrochloride] | 44
OC1(C(CN2CCNCC2)c2cccc(-c3cccc(Cl)c3)c2)CCCCC1 (stereo not shown) [Example 139, 1-[1-(3′-chloro-1,1′-biphenyl-3-yl)-2-piperazin-1-ylethyl]cyclohexanol dihydrochloride] | 45
OC1(C(CN2CCNCC2)c2cccc(-c3ccc(F)c(F)c3)c2)CCCCC1 (stereo not shown) [Example 147, 1-[1-(3′,4′-difluoro-1,1′-biphenyl-3-yl)-2-piperazin-1-ylethyl]cyclohexanol dihydrochloride] | 13
OC1(C(CN2CCNCC2)c2ccccc2-c2ccccc2)CCCCC1 (stereo not shown) [Example 149, 1-[1-(1,1′-biphenyl-2-yl)-2-piperazin-1-ylethyl]cyclohexanol dihydrochloride] | 31
NC1CCN(CC(c2cccc(-c3ccc(Cl)c(Cl)c3)c2)C2(O)CCCCC2)CC1 (stereo not shown) [Example 152, 1-[2-(4-aminopiperidin-1-yl)-1-(3′,4′-dichloro-1,1′-biphenyl-3-yl)ethyl]cyclohexanol dihydrochloride] | 1

More lines, now with the values ahead:

inhibition at 1 µM [%] | Compound
87 | OC1([C@H](CN2CCNCC2)c2cccc(Oc3ccccc3)c2)CCCCC1 (single isomer, unassigned) [Example 357, dihydrochloride]
73 | OC1([C@@H](CN2CCNCC2)c2cccc(Oc3ccccc3)c2)CCCCC1 (single isomer, unassigned) [Example 358, dihydrochloride]
82 | OC1(C(CN2CCNCC2)c2ccc(OCc3ccccc3)cc2)CCCCC1 (stereo not shown) [Example 27, 1-{1-[4-(benzyloxy)phenyl]-2-piperazin-1-ylethyl}cyclohexanol dihydrochloride]
44 | OC1(C(CN2CCNCC2)c2cccc(OC(F)(F)F)c2)CCC1 (stereo not shown) [Example 46, 1-{2-piperazin-1-yl-1-[3-(trifluoromethoxy)phenyl]ethyl}cyclobutanol dihydrochloride]
-10 | CN1CCN(CC(c2cccc(OCc3ccccc3)c2)C2(O)CCC2)CC1 (stereo not shown) [Example 115, 1-[1-[3-(benzyloxy)phenyl]-2-(4-methylpiperazin-1-yl)ethyl]cyclobutanol dihydrochloride]
65 | OC1(C(CN2CCNCC2)c2cccc(-c3ccc(Cl)c(Cl)c3)c2)CCCCC1 (stereo not shown) [Example 135, 1-[1-(3′,4′-dichloro-1,1′-biphenyl-3-yl)-2-piperazin-1-ylethyl]cyclohexanol dihydrochloride]
32 | OC1(C(CN2CCNCC2)c2ccccc2-c2ccc(Cl)c(Cl)c2)CCCCC1 (stereo not shown) [Example 148, 1-[1-(3′,4′-dichloro-1,1′-biphenyl-2-yl)-2-piperazin-1-ylethyl]cyclohexanol dihydrochloride]
18 | OC1(C(CN2CCNCC2)c2ccccc2-c2cccc(Cl)c2)CCCCC1 (stereo not shown) [Example 150, 1-[1-(3′-chloro-1,1′-biphenyl-2-yl)-2-piperazin-1-ylethyl]cyclohexanol dihydrochloride]
12 | OC1(C(CN2CCNCC2)c2ccccc2-c2ccc3c(c2)OCO3)CCCCC1 (stereo not shown) [Example 151, 1-{1-[2-(1,3-benzodioxol-5-yl)phenyl]-2-piperazin-1-ylethyl}cyclohexanol dihydrochloride]

Same assay, conditions: MDCK-Net6, read-out: % Inhibition @ 1 μM (hNET), 1 μM test compound, [3H]NE uptake

Compound | inhibition at 1 µM [%]
OC1(C(CN2CCNCC2)c2cccc(OC(F)(F)F)c2)CCCCC1 (stereo not shown) [Example 23, 1-{2-piperazin-1-yl-1-[3-(trifluoromethoxy)phenyl]ethyl}cyclohexanol dihydrochloride] | 85
CN1CCN(CC(c2cccc(OC(F)(F)F)c2)C2(O)CCCCC2)CC1 (stereo not shown) [Example 24, 1-{2-(4-methylpiperazin-1-yl)-1-[3-(trifluoromethoxy)phenyl]ethyl}cyclohexanol dihydrochloride] | 85
OC1(C(CN2CCNCC2)c2cccc(-c3ccccc3F)c2)CCCCC1 (stereo not shown) [Example 140, 1-[1-(2′-fluoro-1,1′-biphenyl-3-yl)-2-piperazin-1-ylethyl]cyclohexanol maleate] | 52

Same assay, conditions: [3H]NE uptake, test range 1 to 10,000 nM

Compound | pEC50
OC1(C(CN2CCNCC2)c2cccc(OC(F)(F)F)c2)CCCCC1 (stereo not shown) [Example 23, 1-{2-piperazin-1-yl-1-[3-(trifluoromethoxy)phenyl]ethyl}cyclohexanol dihydrochloride] | 6.46
OC1(C(CN2CCNCC2)c2cccc(-c3ccccc3)c2)CCCCC1 (stereo not shown) [Example 136, 1-[1-(1,1′-biphenyl-3-yl)-2-piperazin-1-ylethyl]cyclohexanol dihydrochloride] | 6.00
OC1(C(CN2CCNCC2)c2cccc(-c3ccccc3F)c2)CCCCC1 (stereo not shown) [Example 140, 1-[1-(2′-fluoro-1,1′-biphenyl-3-yl)-2-piperazin-1-ylethyl]cyclohexanol maleate] | 6.06

Second part, the compound after the results:

pEC50 | Compound
6.33 | OC1(C(CN2CCNCC2)c2ccc(OCc3ccccc3)cc2)CCCCC1 (stereo not shown) [Example 27, 1-{1-[4-(benzyloxy)phenyl]-2-piperazin-1-ylethyl}cyclohexanol dihydrochloride]
6.20 | OC1(C(CN2CCNCC2)c2cccc(-c3ccc(Cl)c(Cl)c3)c2)CCCCC1 (stereo not shown) [Example 135, 1-[1-(3′,4′-dichloro-1,1′-biphenyl-3-yl)-2-piperazin-1-ylethyl]cyclohexanol dihydrochloride]
